Measured values as given in paper PMC10464297, “Reevaluation of bromodomain ligands targeting BAZ2A” (Protein Science : A Publication of the Protein Society, 2023).

Columns and labels:
TAF1L = conditions: relative to ATAD2; ref Bamborough et al., [2016]; cited from earlier work
BAZ2A bromodomain [1] = molecular target: T1, BAZ2A bromodomain (Homo sapiens, UniProt Q9UIF9); experiment: Screening by co‐crystallization with BAZ2A bromodomain; assay type: binding
T1 construct: BAZ2A and BAZ2B bromodomains were produced; made in house
T1 sequence (Q9UIF9 1793-1897 limits assumed): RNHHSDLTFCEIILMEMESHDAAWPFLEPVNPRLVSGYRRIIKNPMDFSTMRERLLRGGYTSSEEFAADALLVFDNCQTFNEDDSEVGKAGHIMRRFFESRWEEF
Description: (§1) BAZ2A and BAZ2B bromodomains were produced and their activity evaluated by AlphaScreen as previously reported (Dalle Vedove et al., [2018]; Spiliotopoulos et al., [2017]). BAZ2A bromodomain was crystallized as detailed in an earlier work (Spiliotopoulos et al., [2017]). Diffraction data were collected at the Elettra Synchrotron Light Source (Trieste, Italy), XRD1 and XRD2 beamlines, and the European Synchrotron Radiation Facility (ESRF, Grenoble, France), ID30A‐1/MASSIF‐1 beamline. Data were processed and structures were solved as described elsewhere (Dalle Vedove et al., [2018]). Chemical synthesis of compounds UP39 and UZH23 has already been reported (Unzue et al., [2016]; Zhu et al., [2018]). A detailed description of cell culture methods and ITC protocol is provided in the Supporting Information.

TAF1 = test system: TAF1; set-up: method as in Bamborough et al., [2016]; conditions: relative to ATAD2; ref Bamborough et al., [2016]; cited from earlier work
BAZ2A bromodomain [2] = molecular target: T1, BAZ2A bromodomain; experiment: AlphaScreen binding competition, BAZ2A bromodomain; conditions: for % residual binding BAZ2A (100 μM): compound at 100 μM
Description: as §1
(§2) Figure S3. AlphaScreen competition binding assay for compounds UP39 and UZH23. The specific binding to the acetylated peptide relative to the control DMSO (y-axis) is plotted against the corresponding compound concentration in µM in log10 scale (x-axis).
(§3) (1 picture or pasted object on this page, not shown here)

ATAD2 bromodomains = test system: ATAD2 bromodomains; set-up: method as in Bamborough et al., [2016]; conditions: ref Bamborough et al., [2016]; cited from earlier work
BAZ2B bromodomain = molecular target: T2, BAZ2B bromodomain (Homo sapiens, UniProt Q9UIF8); experiment: AlphaScreen binding competition, BAZ2B bromodomain; conditions: for % residual binding BAZ2B (100 μM): compound at 100 μM
T2 construct: BAZ2A and BAZ2B bromodomains were produced; made in house
T2 sequence (Q9UIF8 2060-2164 limits assumed): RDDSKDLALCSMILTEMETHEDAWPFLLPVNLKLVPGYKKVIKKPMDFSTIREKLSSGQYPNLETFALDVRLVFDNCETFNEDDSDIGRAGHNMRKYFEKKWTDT
Description: as §1, §2, §3

CBP bromodomain = conditions: ref Zhu et al., [2018]; read-out: K D CBP bromodomain; cited from earlier work
BRD1 = molecular target: BRD1; set-up: method as in Humphreys et al., [2017]; conditions: lower potency than on PCAF/GCN5; ref Humphreys et al., [2017]; read-out: potency on BRD1 bromodomain; cited from earlier work
BAZ2A bromodomain [3] = molecular target: T1, BAZ2A bromodomain; experiment: Isothermal titration calorimetry (ITC) on BAZ2A; assay type: binding
Description: It is worth noticing however that these values may be slightly overestimated. The presence of 0.25% DMSO in the ITC experiments leads to less favorable K D values as DMSO competes for binding to the conserved Asn (Lolli & Battistutta, [2013]; Navratilova et al., [2016]). […] Indeed, the change in sign of the entropic term observed for TP‐238 binding to BAZ2A (compared to BPTF and CECR2) closely resembles the effect reported for crotonyllysine binding to the TAF1 bromodomain (compared to Kac), also displacing an additional water molecule from the binding pocket (Flynn et al., [2015]). […]
Isothermal Titration Calorimetry
ITC experiments were performed using an MicroCal PEAQ-IT C microcalorimeter (Malvern Panalytical, UK) at 25°C with a stirring speed of 750 rpm in 20mM Tris pH 7. 8, 0. 2 M NaCl, 0. 2 mM TCEP and 0. 25% DMSO. For each experiment, one 0. 4 µl injection followed by eighteen 2 µl injections have been performed, with 150 seconds separating each injectio n. The inhibitors were tested at 70 µM in the cell with His -Baz2A in the syringe at 1 mM. A blank run with only the buffer was carried out (Suppl. Fig. S6). Data analysis was done with PE A Q-ITC Analysis software , fitting the curve with the ‘one site’ model.

BRPF3 = molecular target: BRPF3; set-up: method as in Humphreys et al., [2017]; conditions: lower potency than on PCAF/GCN5; ref Humphreys et al., [2017]; read-out: potency on BRPF3 bromodomain; cited from earlier work
BRPF1 = molecular target: BRPF1; set-up: method as in Humphreys et al., [2017]; conditions: lower potency than on PCAF/GCN5; ref Humphreys et al., [2017]; read-out: potency on BRPF1 bromodomain; cited from earlier work
PCAF = molecular target: PCAF; set-up: method as in Humphreys et al., [2017]; conditions: ref Humphreys et al., [2017]; read-out: K D PCAF bromodomain; cited from earlier work
GCN5 = molecular target: GCN5; set-up: method as in Humphreys et al., [2017]; conditions: ref Humphreys et al., [2017]; read-out: K D GCN5 bromodomain; cited from earlier work

## CO[C@H]1CNC[C@@H](OCC2CCC(F)(F)CC2)[C@@H]1Nc1ncc(-c2cncc(C)c2)c2cc(C)c(=O)[nH]c12 [GSK8814]
TAF1L
  affinity for TAF1L bromodomain: lower affinity
BAZ2A bromodomain [1]
  located in BAZ2A Kac pocket by co‐crystallization: inability to act as BAZ2A inhibitors
TAF1
  affinity for TAF1 bromodomain: lower affinity
BAZ2A bromodomain [2]
  % residual binding BAZ2A (100 μM): 88 ± 3%
ATAD2 bromodomains
  binding to ATAD2 bromodomains: potent nanomolar binder
BAZ2B bromodomain
  % residual binding BAZ2B (100 μM): 86 ± 2%

## CCOc1ccc(C(C)=O)cc1NC(=O)c1ccc(OCCN2CCNCC2)c(C(=O)OC)c1 [UP39]
BAZ2A bromodomain [1]
  located in BAZ2A Kac pocket by co‐crystallization: located in the BAZ2A Kac pocket
CBP bromodomain
  Kd: 1.4 µM
BAZ2A bromodomain [2]; AlphaScreen
  IC50: 61 ± 4 µM
BAZ2A bromodomain [2]
  % residual binding BAZ2A (100 μM): 36 ± 5%
BAZ2B bromodomain; AlphaScreen
  IC50: 73 ± 5 µM
BAZ2B bromodomain
  % residual binding BAZ2B (100 μM): 42 ± 6%

## CN1C[C@H](Nc2cnn(C)c(=O)c2Br)C[C@H](c2ccccc2)C1 [GSK4027]
BRD1
  Kd: 0.1 to 0.15 µM
BAZ2A bromodomain [1]
  located in BAZ2A Kac pocket by co‐crystallization: located in the BAZ2A Kac pocket
BAZ2A bromodomain [3]; 25°C, 0.25% DMSO, read-out: K D BAZ2A
  Kd: 165 ± 8 µM
BAZ2A bromodomain [3]; BAZ2A
  TΔS: -5.8 kcal/mol
  ΔG: -5.2 kcal/mol
  ΔH: -11.0 ± 0.3 kcal/mol
BAZ2A bromodomain [3]; BAZ2A, one site model
  N (sites): 1 sites
BRPF3
  Kd: 0.1 to 0.15 µM
BAZ2A bromodomain [2]
  % residual binding BAZ2A (100 μM): 77 ± 5%
BRPF1
  Kd: 0.1 to 0.15 µM
PCAF
  Kd: 0.0014 µM
GCN5
  Kd: 0.0014 µM
BAZ2B bromodomain
  % residual binding BAZ2B (100 μM): 70 ± 3%
